Data as given in patent publication US20130323303A1, “DRUG CARRIER AND PREPARATION METHOD THEREOF” (NATIONAL CHIAO TUNG UNIVERSITY, priority 2012, published 2013).

Test system: tumor (transplanted cancer cells carrying fluorescent gene)
Assay: Animal tumor model, tumor size recorded via in vivo imaging system (IVIS)
Conditions: mouse model, after 28 days of drug treatment
Procedure: Under the in vivo experiment of animal tumor model, first a mouse model treated with doxorubucin was prepared as the control group, and another mouse model treated with the oral drug carrier containing doxorubucin was prepared as the experimental group. After drug treatment, the mouse models were recorded the variation of tumor size via in vivo imaging system (IVIS) (because of the mice transplanted with the cancer cells carrying fluorescent gene).
FIG. 6A and 6B are […] of the experimental group that the mouse model was treated with drug at 0 day and after 28 days. The tumor size of the mouse model in the experimental group was 65% compared to before treatment. FIG. 6C and 6D are IVIS photos of the control group that the mouse model was treated with drug at 0 day and after 28 days. […] FIG. 7 is a variation graph in fluorescence values of tumor cells tested by IVIS, and the tumor cells were from the above mouse model treated with drug.

COc1cccc2c1C(=O)c1c(O)c3c(c(O)c1C2=O)C[C@@](O)(C(=O)CO)C[C@@H]3O[C@H]1C[C@H](N)[C@H](O)[C@H](C)O1 [doxorubucin, doxorubicin]
tumor size compared to before treatment: 200%
